Data as given in patent US10017827B2, “Herbicide-resistant sunflower plants with multiple herbicide resistant alleles of AHASL1 and methods of use” (BASF AGROCHEMICAL PRODUCTS B.V., priority 2007, dated 2018).
Where two headings read alike, the source gives them in different places. Marks after values point to notes of the source that are not given here.

Columns and labels:
[1] = test system: AHAS enzyme, WT line (B7); test: Enzyme assay for AHAS activity, Sets 1 and 2; conditions: 100 μM imazamox
[2] = test system: sunflower line B770 (WT); test: Greenhouse whole-plant response to metsulfuron; conditions: 14 DAT
[3] = test system: sunflower line GM1606 (A122T/A122T); test: Greenhouse whole-plant response to metsulfuron; conditions: 14 DAT
[4] = test system: sunflower line GM40 (A122T/A122T); test: Greenhouse whole-plant response to metsulfuron; conditions: 14 DAT
[5] = test system: sunflower line L4 (A122T/A122T); test: Greenhouse whole-plant response to metsulfuron; conditions: 14 DAT
[6] = test system: sunflower hybrid cmsGM40xL4 (A122T/A122T); test: Greenhouse whole-plant response to metsulfuron; conditions: 14 DAT
[7] = test system: sunflower hybrid cmsGM40xBTSu-R1 (A122T/P197L); test: Greenhouse whole-plant response to metsulfuron; conditions: 14 DAT
[8] = test system: A122T sunflower genotypes (mean of H2, L3, L4); test: Greenhouse whole-plant response to imazapyr; format: in vivo; conditions: 14 DAT
Text: (§1) Experiment was arranged as a randomized block design with a full factorial (sunflower line×treatment) arrangement of treatments and 10 replications.

[9] = test system: sunflower line L3 (cmsGM40, A122T); test: Greenhouse whole-plant response to imazapyr; format: in vivo; conditions: 14 DAT
Text: as §1

[10] = test system: sunflower line L4 (A122T); test: Greenhouse whole-plant response to imazapyr; format: in vivo; conditions: 14 DAT
Text: as §1

[11] = test system: sunflower line GM40 (A122T); format: in vivo; conditions: 160 gr/ha at V4, 14 DAT
[12] = test system: sunflower line L5 (BTK 47, WT susceptible); conditions: for biomass accumulation, % of untreated: L5, 14 DAT
[13] = A122T mean (H2,L3,L4), 2x (160 g ai/ha)
[14] = A122T mean (H2,L3,L4), 3x (240 g ai/ha)

COCc1cnc(C2=NC(C)(C(C)C)C(=O)N2)c(C(=O)O)c1 (stereo not shown) [imazamox]
AHAS activity, % of untreated control ([1]; Set 1): 17% | AHAS activity, % of untreated control ([1]; Set 2): 11%

COC(=O)c1ccccc1S(=O)(=O)NC(=O)Nc1nc(C)nc(OC)n1 [metsulfuron]
Dry Matter accumulation (DMA) ([2]; 1X (5 g ai./ha)): 28.43^b | Mean Height Reduction (PH) ([2]; 1X (5 g ai./ha)): 21.73^a* | Phytotoxicity Index (PI, 0-9) ([2]; 1X (5 g ai./ha)): 8.50^bc | Dry Matter accumulation (DMA) ([2]; 2X (10 g ai./ha)): 28.77^b | Mean Height Reduction (PH) ([2]; 2X (10 g ai./ha)): 18.20^a | Phytotoxicity Index (PI, 0-9) ([2]; 2X (10 g ai./ha)): 9.00^d | Dry Matter accumulation (DMA) ([3]; 1X (5 g ai./ha)): 30.39^b | Mean Height Reduction (PH) ([3]; 1X (5 g ai./ha)): 21.55^a | Phytotoxicity Index (PI, 0-9) ([3]; 1X (5 g ai./ha)): 8.70^d | Dry Matter accumulation (DMA) ([3]; 2X (10 g ai./ha)): 20.45^a | Mean Height Reduction (PH) ([3]; 2X (10 g ai./ha)): 21.70^a | Phytotoxicity Index (PI, 0-9) ([3]; 2X (10 g ai./ha)): 9.00^d | Dry Matter accumulation (DMA) ([4]; 1X (5 g ai./ha)): 25.73^ab | Mean Height Reduction (PH) ([4]; 1X (5 g ai./ha)): 21.39^a | Phytotoxicity Index (PI, 0-9) ([4]; 1X (5 g ai./ha)): 9.00^d | Dry Matter accumulation (DMA) ([4]; 2X (10 g ai./ha)): 20.69^a | Mean Height Reduction (PH) ([4]; 2X (10 g ai./ha)): 21.17^a | Phytotoxicity Index (PI, 0-9) ([4]; 2X (10 g ai./ha)): 9.00^d | Dry Matter accumulation (DMA) ([5]; 1X (5 g ai./ha)): 25.40^ab | Mean Height Reduction (PH) ([5]; 1X (5 g ai./ha)): 19.47^a | Phytotoxicity Index (PI, 0-9) ([5]; 1X (5 g ai./ha)): 8.25^b | Dry Matter accumulation (DMA) ([5]; 2X (10 g ai./ha)): 18.80^a | Mean Height Reduction (PH) ([5]; 2X (10 g ai./ha)): 18.73^a | Phytotoxicity Index (PI, 0-9) ([5]; 2X (10 g ai./ha)): 8.5^c | Dry Matter accumulation (DMA) ([6]; 1X (5 g ai./ha)): 19.90^a | Mean Height Reduction (PH) ([6]; 1X (5 g ai./ha)): 22.45^a | Phytotoxicity Index (PI, 0-9) ([6]; 1X (5 g ai./ha)): 8.67^d | Dry Matter accumulation (DMA) ([6]; 2X (10 g ai./ha)): 18.23^a | Mean Height Reduction (PH) ([6]; 2X (10 g ai./ha)): 20.56^a | Phytotoxicity Index (PI, 0-9) ([6]; 2X (10 g ai./ha)): 8.82^cd | Mean Height Reduction (PH) ([7]; 1X (5 g ai./ha)): 77.04^b | Phytotoxicity Index (PI, 0-9) ([7]; 1X (5 g ai./ha)): 0.00^a | Dry Matter accumulation (DMA) ([7]; 2X (10 g ai./ha)): 72.66^c

CC(C)C1(C)N=C(c2ncccc2C(=O)O)NC1=O (stereo not shown) [imazapyr]
height reduction, % of untreated controls ([8]; A122T homozygous, 0.5x): 0.1% | height reduction, % of untreated controls ([8]; A122T homozygous, 6x): 18.8% | reduction in biomass weight ([8]; A122T homozygous, higher dose (6x)): 25% | Phytotoxicity Index (0-9) ([8]; A122T mean (H2,L3,L4), 0.5x (40 g ai/ha)): 0.3 | Phytotoxicity Index (0-9) ([8]; A122T mean (H2,L3,L4), 1x (80 g ai/ha)): 0.3 | Phytotoxicity Index (0-9) [8, 13]: 0.3 | plant height, % of untreated [8, 13]: 98.0% | Phytotoxicity Index (0-9) [8, 14]: 0.3 | biomass accumulation, % of untreated [8, 14]: 90.0** % | Phytotoxicity Index (0-9) ([8]; A122T mean (H2,L3,L4), 4x (320 g ai/ha)): 0.5 | Phytotoxicity Index (0-9) ([8]; A122T mean (H2,L3,L4), 5x (400 g ai/ha)): 0.8 | Phytotoxicity Index (0-9) ([8]; A122T mean (H2,L3,L4), 6x (480 g ai/ha)): 1.2 | Phytotoxicity Index (0-9) ([9]; 0.5x (40 g ai/ha)): 0.4 | Phytotoxicity Index (0-9) ([9]; 1x (80 g ai/ha)): 0.4 | Phytotoxicity Index (0-9) ([9]; 2x (160 g ai/ha)): 0.4 | plant height, % of untreated ([9]; 2x (160 g ai/ha)): 92.0% | Phytotoxicity Index (0-9) ([9]; 3x (240 g ai/ha)): 0.5 | Phytotoxicity Index (0-9) ([9]; 4x (320 g ai/ha)): 1.0 | biomass accumulation, % of untreated ([9]; 4x (320 g ai/ha)): 75.0% | Phytotoxicity Index (0-9) ([9]; 5x (400 g ai/ha)): 2.0 | Phytotoxicity Index (0-9) ([9]; 6x (480 g ai/ha)): 2.5 | Phytotoxicity Index (0-9) ([10]; 0.5x (40 g ai/ha)): 0.0 | biomass accumulation, % of untreated ([10]; 0.5x (40 g ai/ha)): 100.0% | plant height, % of untreated ([10]; 0.5x (40 g ai/ha)): 100.0% | Phytotoxicity Index (0-9) ([10]; 1x (80 g ai/ha)): 0.0 | plant height, % of untreated ([10]; 1x (80 g ai/ha)): 100.0% | Phytotoxicity Index (0-9) ([10]; 2x (160 g ai/ha)): 0.0 | biomass accumulation, % of untreated ([10]; 2x (160 g ai/ha)): 97.0% | Phytotoxicity Index (0-9) ([10]; 3x (240 g ai/ha)): 0.0 | plant height, % of untreated ([10]; 3x (240 g ai/ha)): 97.0% | Phytotoxicity Index (0-9) ([10]; 4x (320 g ai/ha)): 0.0 | Phytotoxicity Index (0-9) ([10]; 5x (400 g ai/ha)): 0.0 | Phytotoxicity Index (0-9) ([10]; 6x (480 g ai/ha)): 0.5 | Mean Phytotoxicity Index (PI, 0-9) [11]: 0.2 | biomass accumulation, % of untreated ([12]; 1x (80 g ai/ha)): 15.0% | biomass accumulation, % of untreated ([12]; 2x (160 g ai/ha)): 15.0% | biomass accumulation, % of untreated ([12]; 3x (240 g ai/ha)): 15.0% | biomass accumulation, % of untreated ([12]; 4x (320 g ai/ha)): 15.0% | biomass accumulation, % of untreated ([12]; 5x (400 g ai/ha)): 15.0% | biomass accumulation, % of untreated ([12]; 6x (480 g ai/ha)): 15.0% | Phytotoxicity Index (0-9) ([12]; in vivo): 9
